This is an account of results in article PMC7112168 (PLoS Pathogens, 2020).

This assay has as its target T1, PelD^Bc (PelD^Bc150-407; also PelD^Bc170-403).
T1 construct: gene BCE_5583
The settings on record: 20 mM HEPES pH 8.0, 150 mM NaCl, 5% glycerol, 1 mM DTT; 25 μM protein, 450 μM c-di-GMP in syringe; single-site model; proposed I-site (RxxD).

In the case of `Nc1nc2c(ncn2[C@@H]2O[C@@H]3COP(=O)(O)O[C@H]4[C@@H](O)[C@H](n5cnc6c(=O)[nH]c(N)nc65)O[C@@H]4COP(=O)(O)O[C@H]3[C@H]2O)c(=O)[nH]1` [c-di-GMP], the Kd (as a rule, the concentration at which binding is half-saturated) is 103 ± 14 nM.
